{
  "source": "patent US11130752B2",
  "about": "“Aminopyrimidine compound” (Cardurion Pharmaceuticals, LLC, priority 2018, dated 2021)",
  "key": {"human CaMKIIδ": {"biological_target": "T1, human CaMKIIδ (Homo sapiens, UniProt Q13557)", "T1 construct": "Full-length, glutathione-S-transferase(GST)-tagged, human CaMKIIδ was purchased from Carna Biosciences; purchased Carna Biosciences (CaMKIIδ); Wako Pure Chemical Industries (calmodulin) 02-111", "assay": "In vitro CaMKII inhibitory activity (binding assay, TR-FRET)", "settings": "Table 1, GST-tagged human CaMKIIδ, activity ranks", "outline": "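TR-FRET displacement of a BODIPY probe (300 nM) from 0.5 nM full-length GST-tagged human CaMKIIδ, with Tb-anti-GST, calmodulin and 1 mM CaCl2 in pH 7.6 HEPES/MgCl2 buffer. Read after 1 hr at room temperature over an eight-point 4-fold series. IC50 by logistic fit, with 3 μM parent compound as the 100% control.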"}, "[1]": {"system": "phospholamban (Thr17, PLN) phosphorylation, cardiac CaMKII", "assay": "In vivo cardiac CaMKII inhibition (oral administration), P-PLN Western blot", "settings": "male CD (SD) IGS rat left ventricle, 30 mg/kg p.o., 4 hr after administration, in comparison with vehicle-treated group, read-out: Reduction rate of P-PLN", "description": "Evaluation of In Vivo Cardiac CaMKII Inhibition (Oral Administration)\nTo evaluate potency of test compounds to inhibit cardiac CaMKII kinase in vivo, phosphorylation levels of CaMKII-specific sites of phospholamban (Thr17, PLN) were measured in the heart of rats administered orally with test compounds.\nTest compounds were suspended in 0.5% [w/v]methylcellulose/water solution and administered (30 mg/kg) to male CD (SD) IGS rat (6-8 weeks old, n=4) by the p.o. route (5 mL/kg). At 4 hours after the administration, rats were sacrificed and the hearts were harvested. After washing the isolated hearts with ice-cold saline, connective tissues were removed on ice, and the isolated left ventricle were frozen into liquid nitrogen gas and stored at −80° C.\n(§1) The left ventricle samples were homogenized in RIPA-buffer containing phosphatase inhibitors and protease inhibitors. Samples were analyzed by Western blotting using anti-P-PLN (Thr17, Santa Cruz Biotechnology, sc-17024-R) antibody. The band intensities were quantified using an imaging system and were normalized relative to the vehicle-treated group."}, "[2]": {"system": "phospholamban (Thr17, PLN) phosphorylation, cardiac CaMKII", "assay": "In vivo cardiac CaMKII inhibition (intravenous administration), P-PLN Western blot", "settings": "male CD (SD) IGS rat left ventricle, 1 mg/kg bolus i.v., 0.25 hr after administration, in comparison with vehicle-treated group", "description": "Evaluation of In Vivo Cardiac CaMKII Inhibition (Intravenous Administration)\nTo evaluate potency of test compounds to inhibit cardiac CaMKII kinase in vivo, phosphorylation levels of CaMKII-specific sites of phospholamban (Thr17, PLN) were measured in the heart of rats administered intravenously with test compounds.\nTest compounds were dissolved in N,N-dimethylacetamide and 1,3-butanediol (1:1) solution and were injected (1 mg/kg) to male CD (SD) IGS rats (8 weeks old, n=4) by bolus intravenous injection via the lateral tail vein or the femoral vein (0.5-1 mL/kg). At 0.25 hours after the injection, rats were sacrificed and the hearts were harvested. After washing the isolated hearts with ice-cold saline, connective tissues were removed on ice, and the isolated left ventricle were frozen into liquid nitrogen gas and stored at −80° C.\nas §1"}, "HepG2 cells": {"system": "HepG2 cells", "assay": "In vitro cytotoxicity (cellular ATP content, CellTiter-Glo)", "assay_type": "cell-based", "settings": "33 μM, 72 hr incubation", "description": "Evaluation of In Vitro Cytotoxicity\nTo evaluate in vitro cytotoxicity of test compounds, % ATP reduction was determined in the presence of 33 μM of each test compound after 72 hr incubation.\nHepG2 cells were seeded in DMEM (Invitrogen) containing 10% FBS (Corning)+glucose (4.5 g/L) for 24 hr to allow cell adhesion. For compound treatments, compounds were diluted in DMSO and the media, followed by added to the wells (24 hr after the cell seeding) to obtain the desired final concentration (33 μM, n=2). The final DMSO concentration was 1%. After 72 hr, cellular ATP contents were measured using CellTiter-Glo Luminescent Cell Viability Assay (Promega). The % ATP reduction was determined by comparing the ATP contents in the absence and the presence of test compounds."}},
  "data": [
    {"smiles": "COCCCOc1nn([C@H]2CC[C@H](N3C[C@@H](C)O[C@@H](C)C3)CC2)cc1Nc1ncc(-c2ccc(C#N)c(O[C@@H](C)Cn3cnnn3)c2)cn1", "note": "[Example 143, 2-(((S)-1-(1H-tetrazol-1-yl)propan-2-yl)oxy)-4-(2-((1-((1r,4r)-4-((2S,6R)-2,6-dimethylmorpholino)cyclohexyl)-3-(3-methoxypropoxy)-1H-pyrazol-4-yl)amino)pyrimidin-5-yl)benzonitrile]", "values": [
      {"measurement": "IC50", "setting": "human CaMKIIδ", "result": "< 10", "unit": "nM"},
      {"measurement": "inhibition in vivo at 30 mg/kg", "setting": "[1]", "result": "> 30", "unit": "%"},
      {"measurement": "Reduction rate of P-PLN", "setting": "[2]", "result": ">30", "unit": "%"},
      {"measurement": "% ATP reduction", "setting": "HepG2 cells", "result": 12, "unit": "%"},
      {"measurement": "melting point", "result": 113, "unit": "°C"}
    ]}
  ]
}
